From PubChem BioAssay (NCI)
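Grown in 96-well plates, cells were treated for 48 hours with each compound at five concentrations. Insufficient inhibition: endpoint recorded as highest concentration tested. GI50 marks 50% less growth. TGI: concentration producing complete growth inhibition.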

Key:
Experiment in all cases: growth of human tumour cells (NCI), 48 h
CCRF-CEM leukemia = tested on: CCRF-CEM leukemia
RXF 393 renal = tested on: RXF 393 renal
SNB-19 CNS = tested on: SNB-19 CNS
UACC-257 melanoma = tested on: UACC-257 melanoma
COLO 205 colon = tested on: COLO 205 colon
MCF7 breast = tested on: MCF7 breast
HCC-2998 colon = tested on: HCC-2998 colon
NCI-H23 lung = tested on: NCI-H23 lung
IGROV1 ovarian = tested on: IGROV1 ovarian
ACHN renal = tested on: ACHN renal
HT29 colon = tested on: HT29 colon
PC-3 prostate = tested on: PC-3 prostate
HCT-116 colon = tested on: HCT-116 colon
HCT-15 colon = tested on: HCT-15 colon
A549 NSCLC = tested on: A549 NSCLC
HOP-62 NSCLC = tested on: HOP-62 NSCLC
MOLT-4 leukemia = tested on: MOLT-4 leukemia
NCI/ADR-RES ovarian = tested on: NCI/ADR-RES ovarian
NCI-H460 lung = tested on: NCI-H460 lung
OVCAR-8 ovarian = tested on: OVCAR-8 ovarian
SK-OV-3 ovarian = tested on: SK-OV-3 ovarian
U251 CNS = tested on: U251 CNS
SR leukemia = tested on: SR leukemia
SK-MEL-28 melanoma = tested on: SK-MEL-28 melanoma
MDA-MB-231 breast = tested on: MDA-MB-231 breast
NCI-H522 lung = tested on: NCI-H522 lung
786-0 renal = tested on: 786-0 renal
CAKI-1 renal = tested on: CAKI-1 renal
MDA-MB-435 = tested on: MDA-MB-435
DU-145 prostate = tested on: DU-145 prostate
SF-539 CNS = tested on: SF-539 CNS
SNB-75 CNS = tested on: SNB-75 CNS
SF-295 CNS = tested on: SF-295 CNS
EKVX NSCLC = tested on: EKVX NSCLC
HL-60(TB) leukemia = tested on: HL-60(TB) leukemia
NCI-H226 lung = tested on: NCI-H226 lung
HS 578T breast = tested on: HS 578T breast
OVCAR-3 ovarian = tested on: OVCAR-3 ovarian
SF-268 CNS = tested on: SF-268 CNS
MALME-3M melanoma = tested on: MALME-3M melanoma
TK-10 renal = tested on: TK-10 renal
SK-MEL-5 melanoma = tested on: SK-MEL-5 melanoma
SN12C renal = tested on: SN12C renal
BT-549 breast = tested on: BT-549 breast
M14 melanoma = tested on: M14 melanoma
LOX IMVI melanoma = tested on: LOX IMVI melanoma
KM12 colon = tested on: KM12 colon
OVCAR-4 ovarian = tested on: OVCAR-4 ovarian
SK-MEL-2 melanoma = tested on: SK-MEL-2 melanoma
UO-31 renal = tested on: UO-31 renal
RPMI-8226 leukemia = tested on: RPMI-8226 leukemia
SW-620 colon = tested on: SW-620 colon
HOP-92 NSCLC = tested on: HOP-92 NSCLC
A498 renal = tested on: A498 renal
UACC-62 melanoma = tested on: UACC-62 melanoma
OVCAR-5 ovarian = tested on: OVCAR-5 ovarian
T-47D breast = tested on: T-47D breast
K-562 leukemia = tested on: K-562 leukemia

For `COc1cc(-n2cc(-c3ccc(Cl)c(Cl)c3)nc2SCc2ccccc2)cc(OC)c1OC`, which GI50 (CCRF-CEM leukemia) is on record?
Its GI50 is greater than 100 µM.

And the TGI (CCRF-CEM leukemia)?
Its TGI is greater than 100 µM.

And the GI50 (RXF 393 renal)?
Its GI50 is 92.5 µM.

What about the TGI (RXF 393 renal) of the same compound?
Its TGI is greater than 100 µM.

And the GI50 (SNB-19 CNS)?
Its GI50 is greater than 100 µM.

What about the TGI (SNB-19 CNS) of the same compound?
The TGI was greater than 100 µM.

What about the GI50 (UACC-257 melanoma) of the same compound?
Its GI50 is greater than 100 µM.

What about the TGI (UACC-257 melanoma) of the same compound?
The TGI was greater than 100 µM.

What about the GI50 (COLO 205 colon) of the same compound?
The GI50 was greater than 100 µM.

And the TGI (COLO 205 colon)?
Its TGI is greater than 100 µM.

What about the GI50 (MCF7 breast) of the same compound?
The GI50 was greater than 100 µM.

And the TGI (MCF7 breast)?
Its TGI is greater than 100 µM.

And the GI50 (HCC-2998 colon)?
The GI50 was greater than 100 µM.

And the TGI (HCC-2998 colon)?
The TGI was greater than 100 µM.

What about the GI50 (NCI-H23 lung) of the same compound?
Its GI50 is greater than 100 µM.

And the TGI (NCI-H23 lung)?
Its TGI is greater than 100 µM.

And the GI50 (IGROV1 ovarian)?
Its GI50 is greater than 100 µM.

And the TGI (IGROV1 ovarian)?
Its TGI is greater than 100 µM.

What about the GI50 (ACHN renal) of the same compound?
The GI50 was greater than 100 µM.

And the TGI (ACHN renal)?
Its TGI is greater than 100 µM.

What about the GI50 (HT29 colon) of the same compound?
Its GI50 is greater than 100 µM.

What about the TGI (HT29 colon) of the same compound?
Its TGI is greater than 100 µM.

And the GI50 (PC-3 prostate)?
The GI50 was 38.9 µM.

What about the TGI (PC-3 prostate) of the same compound?
The TGI was greater than 100 µM.

What about the GI50 (HCT-116 colon) of the same compound?
The GI50 was 80.7 µM.

What about the TGI (HCT-116 colon) of the same compound?
The TGI was greater than 100 µM.

What about the GI50 (HCT-15 colon) of the same compound?
Its GI50 is greater than 100 µM.

What about the TGI (HCT-15 colon) of the same compound?
Its TGI is greater than 100 µM.

What about the GI50 (A549 NSCLC) of the same compound?
The GI50 was greater than 100 µM.

What about the TGI (A549 NSCLC) of the same compound?
The TGI was greater than 100 µM.

And the GI50 (HOP-62 NSCLC)?
Its GI50 is greater than 100 µM.

What about the TGI (HOP-62 NSCLC) of the same compound?
The TGI was greater than 100 µM.

What about the GI50 (MOLT-4 leukemia) of the same compound?
The GI50 was 55.9 µM.

And the TGI (MOLT-4 leukemia)?
The TGI was greater than 100 µM.

What about the GI50 (NCI/ADR-RES ovarian) of the same compound?
Its GI50 is greater than 100 µM.

And the TGI (NCI/ADR-RES ovarian)?
The TGI was greater than 100 µM.

What about the GI50 (NCI-H460 lung) of the same compound?
Its GI50 is greater than 100 µM.

And the TGI (NCI-H460 lung)?
Its TGI is greater than 100 µM.

What about the GI50 (OVCAR-8 ovarian) of the same compound?
The GI50 was greater than 100 µM.

And the TGI (OVCAR-8 ovarian)?
Its TGI is greater than 100 µM.

What about the GI50 (SK-OV-3 ovarian) of the same compound?
The GI50 was greater than 100 µM.

What about the TGI (SK-OV-3 ovarian) of the same compound?
Its TGI is greater than 100 µM.

And the GI50 (U251 CNS)?
Its GI50 is greater than 100 µM.

And the TGI (U251 CNS)?
Its TGI is greater than 100 µM.

What about the GI50 (SR leukemia) of the same compound?
The GI50 was greater than 100 µM.

And the TGI (SR leukemia)?
Its TGI is greater than 100 µM.

What about the GI50 (SK-MEL-28 melanoma) of the same compound?
Its GI50 is greater than 100 µM.

What about the TGI (SK-MEL-28 melanoma) of the same compound?
Its TGI is greater than 100 µM.

And the GI50 (MDA-MB-231 breast)?
Its GI50 is greater than 100 µM.

What about the TGI (MDA-MB-231 breast) of the same compound?
Its TGI is greater than 100 µM.

And the GI50 (NCI-H522 lung)?
The GI50 was 44.8 µM.

And the TGI (NCI-H522 lung)?
The TGI was greater than 100 µM.

And the GI50 (786-0 renal)?
The GI50 was greater than 100 µM.

And the TGI (786-0 renal)?
The TGI was greater than 100 µM.

What about the GI50 (CAKI-1 renal) of the same compound?
Its GI50 is greater than 100 µM.

What about the TGI (CAKI-1 renal) of the same compound?
The TGI was greater than 100 µM.

And the GI50 (MDA-MB-435)?
Its GI50 is greater than 100 µM.

And the TGI (MDA-MB-435)?
The TGI was greater than 100 µM.

And the GI50 (DU-145 prostate)?
The GI50 was greater than 100 µM.

And the TGI (DU-145 prostate)?
The TGI was greater than 100 µM.

What about the GI50 (SF-539 CNS) of the same compound?
The GI50 was greater than 100 µM.

And the TGI (SF-539 CNS)?
The TGI was greater than 100 µM.

And the GI50 (SNB-75 CNS)?
The GI50 was greater than 100 µM.

What about the TGI (SNB-75 CNS) of the same compound?
Its TGI is greater than 100 µM.

What about the GI50 (SF-295 CNS) of the same compound?
Its GI50 is greater than 100 µM.

And the TGI (SF-295 CNS)?
Its TGI is greater than 100 µM.

And the GI50 (EKVX NSCLC)?
The GI50 was greater than 100 µM.

And the TGI (EKVX NSCLC)?
The TGI was greater than 100 µM.

What about the GI50 (HL-60(TB) leukemia) of the same compound?
Its GI50 is greater than 100 µM.

And the TGI (HL-60(TB) leukemia)?
The TGI was greater than 100 µM.

What about the GI50 (NCI-H226 lung) of the same compound?
Its GI50 is greater than 100 µM.

What about the TGI (NCI-H226 lung) of the same compound?
The TGI was greater than 100 µM.

What about the GI50 (HS 578T breast) of the same compound?
Its GI50 is greater than 100 µM.

And the TGI (HS 578T breast)?
Its TGI is greater than 100 µM.

What about the GI50 (OVCAR-3 ovarian) of the same compound?
The GI50 was greater than 100 µM.

And the TGI (OVCAR-3 ovarian)?
The TGI was greater than 100 µM.

What about the GI50 (SF-268 CNS) of the same compound?
The GI50 was greater than 100 µM.

And the TGI (SF-268 CNS)?
The TGI was greater than 100 µM.

What about the GI50 (MALME-3M melanoma) of the same compound?
The GI50 was greater than 100 µM.

And the TGI (MALME-3M melanoma)?
The TGI was greater than 100 µM.

And the GI50 (TK-10 renal)?
Its GI50 is greater than 100 µM.

What about the TGI (TK-10 renal) of the same compound?
Its TGI is greater than 100 µM.

And the GI50 (SK-MEL-5 melanoma)?
Its GI50 is greater than 100 µM.

And the TGI (SK-MEL-5 melanoma)?
The TGI was greater than 100 µM.

And the GI50 (SN12C renal)?
Its GI50 is greater than 100 µM.

And the TGI (SN12C renal)?
The TGI was greater than 100 µM.

What about the GI50 (BT-549 breast) of the same compound?
Its GI50 is greater than 100 µM.

What about the TGI (BT-549 breast) of the same compound?
Its TGI is greater than 100 µM.

What about the GI50 (M14 melanoma) of the same compound?
Its GI50 is greater than 100 µM.

What about the TGI (M14 melanoma) of the same compound?
Its TGI is greater than 100 µM.

And the GI50 (LOX IMVI melanoma)?
Its GI50 is greater than 100 µM.

What about the TGI (LOX IMVI melanoma) of the same compound?
The TGI was greater than 100 µM.

And the GI50 (KM12 colon)?
Its GI50 is greater than 100 µM.

What about the TGI (KM12 colon) of the same compound?
The TGI was greater than 100 µM.

And the GI50 (OVCAR-4 ovarian)?
Its GI50 is greater than 100 µM.

And the TGI (OVCAR-4 ovarian)?
The TGI was greater than 100 µM.

And the GI50 (SK-MEL-2 melanoma)?
The GI50 was greater than 100 µM.

And the TGI (SK-MEL-2 melanoma)?
The TGI was greater than 100 µM.

What about the GI50 (UO-31 renal) of the same compound?
The GI50 was greater than 100 µM.

And the TGI (UO-31 renal)?
Its TGI is greater than 100 µM.

What about the GI50 (RPMI-8226 leukemia) of the same compound?
The GI50 was greater than 100 µM.

And the TGI (RPMI-8226 leukemia)?
The TGI was greater than 100 µM.

And the GI50 (SW-620 colon)?
The GI50 was greater than 100 µM.

And the TGI (SW-620 colon)?
The TGI was greater than 100 µM.

What about the GI50 (HOP-92 NSCLC) of the same compound?
The GI50 was greater than 100 µM.

And the TGI (HOP-92 NSCLC)?
Its TGI is greater than 100 µM.

And the GI50 (A498 renal)?
Its GI50 is greater than 100 µM.

And the TGI (A498 renal)?
The TGI was greater than 100 µM.

And the GI50 (UACC-62 melanoma)?
Its GI50 is greater than 100 µM.

And the TGI (UACC-62 melanoma)?
The TGI was greater than 100 µM.

And the GI50 (OVCAR-5 ovarian)?
Its GI50 is greater than 100 µM.

And the TGI (OVCAR-5 ovarian)?
The TGI was greater than 100 µM.

And the GI50 (T-47D breast)?
Its GI50 is greater than 100 µM.

What about the TGI (T-47D breast) of the same compound?
Its TGI is greater than 100 µM.

And the GI50 (K-562 leukemia)?
Its GI50 is greater than 100 µM.

And the TGI (K-562 leukemia)?
Its TGI is greater than 100 µM.
